Data on 1 compound can be found in patent EP2535710A1, “Method for determining the immune toxicity of a compound in vitro” (Rijksinstituut Voor Volksgezondheid En Milieu, priority 2011, dated 2012).

The subject of one data set is MAPK1. Kind of data set: Phosphoproteome analysis of TBTO-treated cells (phosphoprotein and TiO2 phosphopeptide enrichment, nano-LC/MS/MS). The class given is cell-based, Murine. To be noted: whole protein; abundantly present in control cells; EL4 cells, 0.5 µM TBTO, 6 hr. How it is done:
(§1) Murine EL4 cells were cultured as described before.
(§2) After exposure, cell suspensions were centrifuged at 1200 rpm for 10 min at 4 °C and the pellets were washed in 20 mL phosphate-buffered saline (PBS, pH 7.2) and centrifuged again. This procedure was repeated twice. The obtained cell pellet of each sample or control was then suspended in 5 mL of phosphoprotein lysis buffer prepared following the instructions of Phosphoprotein Purification Kit (Qiagen). This volume of the lysis buffer contained, in addition to the detergent CHAPS and Benzonase (10 µL), one tablet of protease inhibitor and Phosphatase Inhibitor Cocktail 1 (10 µL). The cell suspension was incubated on ice for 30 min and vortexed briefly and gently every 10 min. After that, the cell lysate was centrifuged at 10.000 rpm for 30 min at 4 °C. The supernatant was then taken and protein concentration determined according to Bradford. A total amount of 2.5 mg protein, at the concentration of 0.1 mg/mL, was loaded on the affinity column, which was pre-equilibrated with lysis buffer as recommended by the manufacturer. The chromatography was performed at room temperature. […] These enriched fractions were combined and the protein concentration was determined. […]

The next data set deals with Matrin 3. Kind of data set: Western blot analysis of TBTO-treated and control cell extracts. To be noted: Immunoblot, TBTO-treated cells versus control extract; EL4 cells, 0.5 µM TBTO, 6 hr; Fig. 1 b. In kind it is cell-based, Murine. How it is done: as §1, §2
For orientation: In western blotting, separated proteins are transferred to a membrane and probed.

The subject of the next data set is RPS6KB1 (Thr444/Ser447). The description is as above. In kind it is cell-based, Murine. The following applies: treated cells compared to control extract, EL4 cells, 0.5 µM TBTO, 6 hr, Figure 1a. Here is the method:
as §1, §2

For another data set, the system named is Murine EL4 cells. The following applies: trypan blue dye exclusion, 0.5 µM TBTO, 37 °C for 6 hr, range in all experiments.
The test system of another data set is cells. To be noted: TBTO concentrations higher than 1µM and incubation times longer than 6h; refs [10, 21]; cited from earlier work.

Protocol for Murine EL4 cells: Murine EL4 cells were cultured as described before [10]. Each treated sample or control contained 5×10^7 cells in a volume of 20 mL. A 1 mM TBTO stock solution was prepared in ethanol and 10 µl of this solution was added to each one of the cell suspension samples so that the final concentration of TBTO was 0.5 µM, whereas 10 µl of ethanol without TBTO was added to the control cells. Two independent replicate experiments for both treated sample and control were performed. Subsequently, cells were incubated at 37 °C for 6 hr.

Turning to `CCC[CH2][Sn]([CH2]CCC)([CH2]CCC)[O][Sn]([CH2]CCC)([CH2]CCC)[CH2]CCC` [TBTO, tributyltin oxide], in the data set on MAPK1, the “detection of MAPK1 phosphoprotein in TBTO-treated cells” value is “not detected”. Also, in the data set with Matrin 3, the “band corresponding to Matrin 3 (ca. 125-130 kDa)” value is “not detectable”. Besides, the “intensity signal of the band corresponding to Thr444/Ser447” value with RPS6KB1 (Thr444/Ser447) is “decrease in the intensity signal”. For the same compound, the Cell viability in the data set on Murine EL4 cells is 85-90%. The apoptosis of cells entry in the data set with cells is “caused apoptosis of cells”.
